Measurements published in patent US5741811A, “Polythiophene anti-tumor agents” (Purdue Research Foundation, priority 1996, dated 1998).
In brackets after ≈: the same amount, converted by molar mass.

Tests used:
[1] = tested on: TBE cells (ras-transformed human bronchial epithelial cells); assay: Selective cytotoxicity, ras-transformed cells (cell count); format: cell-based
[2] = tested on: NHBE cells (Normal human bronchial epithelial cells); assay: Selective cytotoxicity, normal cells (cell count); format: cell-based
[3] = tested on: ras-transformed human bronchial epithelial cells (TBE) tumor; assay: In vivo antitumor activity, TBE cells implanted in athymic mice; parameters: species or system athymic mice (human tumor cells); conditions: 25 mg/kg i.p., 4.0 × 10^6 cells/mouse; for Number of Animals with Tumor: five mice
Protocol: The experiments were carried out at Purdue University athymic mouse laboratory. Athymic mice were purchased from and maintained at the athymic mouse laboratory under […]. Tumor cells (TBE) were obtained from normal human bronchial epithelial cells transfected with plasmic H1 carrying v-Harvey-ras (H-ras) oncogene via protoplast fusion (G. H. Yoakum, J. F. Lechner, E. W. Gabrielson, B. E. Korba, L. Malan-Shibley, J. C. Willey, M. G. Valerio, A. M. Shamsuddin, B. F. Trump and C. C. Harris, Science 227, 1174, 1985. T. C. K. Chan, C.-j. Chang, N. M. Koonchanok and R.L. Geahlen, Biochem. Biophys. Res. Commun., 193, 1152, 1993. The TBE cells were implanted subcutaneously on day 0 of the experiment. Each test group consists of five mice. The compounds tested were dissolved in a saline solution or a saline solution containing 5% of dimethylsulfoxide and 10% cremphor EL (Sigma Chemical Company, St. Louis, Mo.), and were administered intraperitoneously starting on day 2. The solution was administered every four days for a total of four treatments. Tumor volumes were measured every week. The antitumor activity was measured as % of growth inhibition, which is defined by the percentage of the median tumor volume reduction per week of the treated mice divided by the median tumor volume per week of the controlled mice (Tables 9 and 10).

[4] = tested on: NCI-H226 lung cancer cells; assay: NCI human tumor cell line panel growth inhibition; format: cell-based
[5] = tested on: NCI-H460 lung cancer cells; assay: NCI human tumor cell line panel growth inhibition; format: cell-based
[6] = tested on: LXPL-529 lung cancer cells; assay: NCI human tumor cell line panel growth inhibition; format: cell-based
[7] = tested on: HCT-116 colon cancer cells; assay: NCI human tumor cell line panel growth inhibition; format: cell-based
[8] = tested on: KM20L2 colon cancer cells; assay: NCI human tumor cell line panel growth inhibition; format: cell-based
SNB-75 CNS cancer cells = assay: NCI human tumor cell line panel growth inhibition; format: cell-based
U251 CNS cancer cells = assay: NCI human tumor cell line panel growth inhibition; format: cell-based
UACC-257 melanoma cells = assay: NCI human tumor cell line panel growth inhibition; format: cell-based
UACC-62 melanoma cells = assay: NCI human tumor cell line panel growth inhibition; format: cell-based
[9] = tested on: IGROV-1 ovarian cancer cells; assay: NCI human tumor cell line panel growth inhibition; format: cell-based
[10] = tested on: OVCAR-5 ovarian cancer cells; assay: NCI human tumor cell line panel growth inhibition; format: cell-based
A-498 renal cancer cells = assay: NCI human tumor cell line panel growth inhibition; format: cell-based
[11] = tested on: CAKI-1 renal cancer cells; assay: NCI human tumor cell line panel growth inhibition; format: cell-based; conditions: CAKI-1, renal cancer
[12] = tested on: RXF-631 renal cancer cells; assay: NCI human tumor cell line panel growth inhibition; format: cell-based
TK-10 renal cancer cells = assay: NCI human tumor cell line panel growth inhibition; format: cell-based
HOP-18 lung cancer cells = assay: NCI human tumor cell line panel growth inhibition; format: cell-based; conditions: Homo sapiens, read-out: Log10 GI50 (converted)
[13] = tested on: NCI-H23 lung cancer cells; assay: NCI human tumor cell line panel growth inhibition; format: cell-based; conditions: read-out: Log10 GI50 (converted)
[14] = tested on: NCI-H322M lung cancer cells; assay: NCI human tumor cell line panel growth inhibition; format: cell-based; conditions: Homo sapiens, read-out: Log10 GI50 (converted)
[15] = tested on: COLO-205 colon cancer cells; assay: NCI human tumor cell line panel growth inhibition; format: cell-based; conditions: Homo sapiens; COLO-205, colon cancer; read-out: Log10 GI50 (converted)
DLD-1 colon cancer cells = assay: NCI human tumor cell line panel growth inhibition; format: cell-based; conditions: Homo sapiens, read-out: Log10 GI50 (converted)
[16] = tested on: HCC-2998 colon cancer cells; assay: NCI human tumor cell line panel growth inhibition; format: cell-based; conditions: Homo sapiens, read-out: Log10 GI50 (converted)
SF-295 CNS cancer cells = assay: NCI human tumor cell line panel growth inhibition; format: cell-based; conditions: read-out: Log10 GI50 (converted)
SNB-19 CNS cancer cells = assay: NCI human tumor cell line panel growth inhibition; format: cell-based; conditions: Homo sapiens, read-out: Log10 GI50 (converted)
[17] = tested on: RXF-393 renal cancer cells; assay: NCI human tumor cell line panel growth inhibition; format: cell-based; conditions: Homo sapiens, read-out: Log10 GI50 (converted)
[18] = Homo sapiens, read-out: Log10 GI50 (converted)

OCc1ccc(-c2ccc(-c3sccc3CO)s2)s1 [compound 658875]
GI50 [1]: 0.002 µg/mL (≈ 0.00648 µM)
GI50 [2]: 9.7 µg/mL (≈ 31.4 µM)

O=Cc1ccc(-c2ccc(-c3cc(CO)cs3)s2)s1 [compound 658879]
GI50 [1]: 0.004 µg/mL (≈ 0.0131 µM)
GI50 [2]: 6.2 µg/mL (≈ 20.2 µM)

O=Cc1ccc(-c2ccc(-c3ccc(C=O)s3)s2)s1 [compound 637394]
GI50 [1]: 0.01 µg/mL (≈ 0.0328 µM)
GI50 [2]: 0.2 µg/mL (≈ 0.657 µM)

NCc1ccc(-c2ccc(-c3cccs3)s2)s1 [compound 652866]
GI50 [1]: 0.001 µg/mL (≈ 0.0036 µM)
GI50 [2]: 0.01 µg/mL (≈ 0.036 µM)

NCc1ccc(-c2ccc(-c3ccc(CN)s3)s2)s1 [compound 658110]
GI50 [1]: 4 µg/mL (≈ 13.1 µM)
GI50 [2]: 10 µg/mL (≈ 32.6 µM)

O=Cc1ccc(-c2ccc(-c3ccc(CO)s3)s2)s1 [compound 647455]
GI50 [1]: 0.002 µg/mL (≈ 0.00653 µM)
GI50 [2]: 0.1 µg/mL (≈ 0.326 µM)
Tumor Volume ([3]; week 1): 0.0 mm^3
Number of Animals with Tumor ([3]; week 1): 0
Tumor Volume ([3]; week 1.5): 1.4 mm^3
Number of Animals with Tumor ([3]; week 1.5): 1
Tumor Volume ([3]; week 2): 5.2 mm^3
Number of Animals with Tumor ([3]; week 2): 3
Slope ([3]; week 3): 2.16 mm^3 /week
Tumor Growth Inhibition ([3]; week 3): 57%
Tumor Volume ([3]; week 3): 5.8 mm^3
Number of Animals with Tumor ([3]; week 3): 4
Slope ([3]; week 4): 1.75 mm^3 /week
Tumor Growth Inhibition ([3]; week 4): 60%
Tumor Volume ([3]; week 4): 5.6 mm^3
Number of Animals with Tumor ([3]; week 4): 4
Slope ([3]; week 5): 1.34 mm^3 /week
Tumor Growth Inhibition ([3]; week 5): 61%
Tumor Volume ([3]; week 5): 5.4 mm^3
Number of Animals with Tumor ([3]; week 5): 4
Slope ([3]; week 6): 1.60 mm^3 /week
Tumor Growth Inhibition ([3]; week 6): 45%
Tumor Volume ([3]; week 6): 10.6 mm^3
Number of Animals with Tumor ([3]; week 6): 5
Slope ([3]; week 8.6): 2.07 mm^3 /week
Tumor Growth Inhibition ([3]; week 8.6): 21%
Tumor Volume ([3]; week 8.6): 18.8 mm^3
Number of Animals with Tumor ([3]; week 8.6): 5

O=Cc1ccc(-c2ccc(-c3ccc(C=O)s3)s2)s1 [drawing 35]
Log10 GI50 [4]: -5.76 M
Log10 GI50 [5]: -5.62 M
Log10 GI50 [6]: -5.95 M
Log10 GI50 [7]: -4.74 M
Log10 GI50 [8]: -4.39 M
Log10 GI50 (SNB-75 CNS cancer cells): -4.14 M
Log10 GI50 (U251 CNS cancer cells): -6.09 M
Log10 GI50 (UACC-257 melanoma cells): -5.72 M
Log10 GI50 (UACC-62 melanoma cells): -6.46 M
Log10 GI50 [9]: -5.15 M
Log10 GI50 [10]: -4.68 M
Log10 GI50 (A-498 renal cancer cells): -5.93 M
Log10 GI50 [11]: -5.88 M
Log10 GI50 [12]: -4.03 M
Log10 GI50 (TK-10 renal cancer cells): -5.29 M

NCc1ccc(-c2ccc(-c3ccc(CO)s3)s2)s1 [compound 656898]
GI50 [1]: 0.02 µg/mL (≈ 0.065 µM)
GI50 [2]: 3 µg/mL (≈ 9.76 µM)

O=Cc1ccc(-c2ccc(CO)s2)s1 [compound 647073]
GI50 [1]: 0.05 µg/mL (≈ 0.223 µM)
GI50 [2]: 0.08 µg/mL (≈ 0.357 µM)

O=Cc1ccc(-c2ccc(-c3sccc3CO)s2)s1 [compound 658876]
GI50 [1]: 0.02 µg/mL (≈ 0.0653 µM)
GI50 [2]: 0.4 µg/mL (≈ 1.31 µM)

OCc1csc(-c2ccc(-c3ccc(CO)s3)s2)c1 [compound 658878]
GI50 [1]: 0.002 µg/mL (≈ 0.00648 µM)
GI50 [2]: 8 µg/mL (≈ 25.9 µM)

CC[N+](CC)(CC)Cc1ccc(-c2ccc(-c3cccs3)s2)s1 [compound 659561]
GI50 [1]: 2 µg/mL
GI50 [2]: 5 µg/mL

OCc1ccc(-c2ccc(-c3cccs3)s2)s1 [compound 637388]
GI50 [1]: 0.02 µg/mL (≈ 0.0718 µM)
GI50 [2]: 3 µg/mL (≈ 10.8 µM)

O=Cc1ccc(-c2ccc(-c3cccs3)s2)s1 [compound 637393]
GI50 [1]: 0.03 µg/mL (≈ 0.109 µM)
GI50 [2]: 0.2 µg/mL (≈ 0.724 µM)

OCc1ccc(-c2ccc(-c3cccs3)s2)s1 [drawing 30]
GI50 (HOP-18 lung cancer cells): 22400 nM
GI50 [13]: 70800 nM
GI50 [4, 18]: 117 nM
GI50 [14]: 29500 nM
GI50 [5, 18]: 490 nM
GI50 [6, 18]: < 10 nM
GI50 [15]: 912 nM
GI50 (DLD-1 colon cancer cells): 4470 nM
GI50 [16]: 36300 nM
GI50 [7, 18]: 295 nM
GI50 ([8]; Homo sapiens, KM-20L2, read-out: Log10 GI50 (converted)): 245 nM
GI50 (SF-295 CNS cancer cells): 33900 nM
GI50 (SNB-19 CNS cancer cells): 18600 nM
GI50 (U251 CNS cancer cells; Homo sapiens, U-251, read-out: Log10 GI50 (converted)): 148 nM
GI50 (UACC-257 melanoma cells; [18]): 102 nM
GI50 (UACC-62 melanoma cells; [18]): < 10 nM
GI50 [9, 18]: 42.7 nM
GI50 [10, 18]: 224 nM
GI50 (A-498 renal cancer cells; Homo sapiens, A498, read-out: Log10 GI50 (converted)): < 10 nM
GI50 [11, 18]: 27.5 nM
GI50 [17]: 31.6 nM
GI50 [12, 18]: 28.2 nM
GI50 (TK-10 renal cancer cells; [18]): 105 nM

O=Cc1ccc(-c2ccc(-c3ccsc3)s2)s1 [compound 660643]
GI50 [1]: 0.005 µg/mL (≈ 0.0181 µM)
GI50 [2]: 2.4 µg/mL (≈ 8.68 µM)

O=Cc1ccc(-c2ccc(-c3sccc3C=O)s2)s1 [compound 658877]
GI50 [1]: 0.03 µg/mL (≈ 0.0985 µM)
GI50 [2]: 0.6 µg/mL (≈ 1.97 µM)

OCc1ccc(-c2ccc(-c3ccsc3)s2)s1 [compound 660644]
GI50 [1]: 0.002 µg/mL (≈ 0.00718 µM)
GI50 [2]: 3.6 µg/mL (≈ 12.9 µM)

OCc1ccc(-c2ccc(CO)s2)s1 [compound 647452]
GI50 [1]: 0.03 µg/mL (≈ 0.133 µM)
GI50 [2]: 0.6 µg/mL (≈ 2.65 µM)
